From PubChem BioAssay (NCI) come the findings set out here.

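Five concentrations, 48 hours, 96-well plates. GI50 marks 50% less growth. TGI: total growth inhibition.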

Test systems include SNB-75 CNS; HS 578T breast; COLO 205 colon; UO-31 renal; HT29 colon; BT-549 breast; CAKI-1 renal; EKVX NSCLC; IGROV1 ovarian; HOP-92 NSCLC.
Experiment in all cases: growth of human tumour cells (NCI), 48 h

Consider `CC1=NC(=Cc2ccc([N+](=O)[O-])cc2)C(=O)N1n1c(-c2ccccc2)nc2ccccc2c1=O`, for which the TGI in the experiment on SNB-75 CNS, with HS 578T breast, in the experiment on COLO 205 colon, in the experiment with UO-31 renal, in the experiment with HT29 colon and in the experiment with BT-549 breast was > 100 µM throughout. The TGI in the experiment on CAKI-1 renal, in the experiment with EKVX NSCLC and in the experiment with IGROV1 ovarian was > 100 µM throughout.
For `CCOC(=O)c1cnc2c(C)cccc2c1Nc1ccc(C(C)=O)cc1`, the GI50 was 15.4 µM with SNB-75 CNS; 8.95 µM in the experiment on HOP-92 NSCLC; 15.4 µM in the experiment with HS 578T breast; 17.5 µM in the experiment with COLO 205 colon; 13.5 µM in the experiment on UO-31 renal; 19.2 µM in the experiment with HT29 colon. The GI50 in the experiment with BT-549 breast was 16.1 µM; in the experiment with CAKI-1 renal, 79 µM; with IGROV1 ovarian it was 25.5 µM. In addition, the TGI is 51 µM with SNB-75 CNS; 36.9 µM in the experiment on HOP-92 NSCLC; 58.4 µM with HS 578T breast; 43.4 µM in the experiment with COLO 205 colon; > 100 µM with UO-31 renal; > 100 µM in the experiment with HT29 colon. Besides, the TGI in the experiment on BT-549 breast is 59.3 µM; with CAKI-1 renal, > 100 µM; in the experiment on IGROV1 ovarian it was > 100 µM.
Take `CN(CCCNC(=O)CCOCCOCCOCCNC(=O)Cc1ccc2ccc3cccc4ccc1c2c34)CCCNc1cc(-c2ccc3ccccc3c2)nc2ccccc12`: the GI50 was 0.51 µM in the experiment on SNB-75 CNS; 0.38 µM with HOP-92 NSCLC; 1.59 µM in the experiment on HS 578T breast; 0.436 µM in the experiment with COLO 205 colon; 5.1 µM in the experiment with UO-31 renal; 0.108 µM in the experiment on HT29 colon. The GI50 is 2.01 µM in the experiment with BT-549 breast, 1.06 µM in the experiment on CAKI-1 renal and 0.48 µM with EKVX NSCLC. Further, the TGI in the experiment with SNB-75 CNS came to 0.994 µM; in the experiment with HOP-92 NSCLC it was 2.22 µM; with HS 578T breast it was 11.5 µM; in the experiment with COLO 205 colon, 0.902 µM; in the experiment on UO-31 renal, 13.6 µM; with HT29 colon, 0.419 µM. Moreover, the figures for the TGI with BT-549 breast, in the experiment on CAKI-1 renal and in the experiment on EKVX NSCLC were 4.68 µM, 3.34 µM and 0.959 µM, respectively.
Consider `COc1ccc(N=N/C(C(=O)C(F)(F)F)=C(\O)c2ccc(Cl)cc2)cc1`, for which the GI50 in the experiment with SNB-75 CNS is 10.3 µM; in the experiment with HS 578T breast, 11.2 µM; with COLO 205 colon, 11.3 µM; in the experiment with UO-31 renal it was 8.18 µM; in the experiment on HT29 colon, 4.6 µM; with BT-549 breast, 7.04 µM. Also, the GI50 is 3.97 µM with CAKI-1 renal, 9.09 µM with EKVX NSCLC and 9.82 µM in the experiment on IGROV1 ovarian. Also, the TGI with SNB-75 CNS stood at 37.6 µM; in the experiment with HS 578T breast, 76.2 µM; in the experiment on COLO 205 colon, 25.1 µM; with UO-31 renal, 47.6 µM; with HT29 colon, 17.2 µM; in the experiment with BT-549 breast it was 47.2 µM. Further, the results for the TGI in the experiment on CAKI-1 renal, in the experiment on EKVX NSCLC and with IGROV1 ovarian were 25.5 µM, 22.3 µM and > 100 µM, respectively.
As to `C=CCOCn1cc(C)c(=O)[nH]c1=O`, the TGI with SNB-75 CNS, with HS 578T breast, in the experiment on COLO 205 colon, in the experiment on UO-31 renal, in the experiment on HT29 colon and with BT-549 breast was > 100 µM in each case. Also, the TGI in the experiment with CAKI-1 renal, with EKVX NSCLC and in the experiment on IGROV1 ovarian was > 100 µM in each case.
As to `CCN1CCN(C(=O)[C@]23CCC(C)(C)C[C@@H]2C2=CC[C@@H]4[C@@]5(C)C/C(=C/c6ccncc6)C(=O)C(C)(C)[C@@H]5CC[C@@]4(C)[C@]2(C)CC3)CC1`, the GI50 was 1.07 µM in the experiment on HOP-92 NSCLC; 1.58 µM with HS 578T breast; 1.64 µM in the experiment with COLO 205 colon; 1.24 µM in the experiment with UO-31 renal; 1.38 µM with HT29 colon; 1.53 µM in the experiment with BT-549 breast. In addition, the GI50 in the experiment with CAKI-1 renal was 1.45 µM; in the experiment on EKVX NSCLC it was 1.49 µM; with IGROV1 ovarian it was 1.6 µM. Further, the TGI in the experiment with HOP-92 NSCLC stood at 2.39 µM; in the experiment on HS 578T breast, 4.16 µM; in the experiment with COLO 205 colon, 3.64 µM; in the experiment with UO-31 renal, 2.5 µM; in the experiment with HT29 colon, 3.14 µM; in the experiment with BT-549 breast, 3.04 µM. The values for the TGI with CAKI-1 renal, in the experiment on EKVX NSCLC and in the experiment with IGROV1 ovarian were 2.95 µM, 3.01 µM and 3.13 µM, respectively.
`C#CCOc1ccc2ncnc(Nc3ccc(NC(=O)C=C)cc3)c2c1`: the GI50 was 7.84 µM in the experiment on HOP-92 NSCLC; 62 µM with HS 578T breast; 15.6 µM in the experiment on COLO 205 colon; 11.6 µM in the experiment with UO-31 renal; 30.6 µM in the experiment with HT29 colon; 39.3 µM in the experiment on BT-549 breast. For the same compound, the GI50 with CAKI-1 renal was > 100 µM; in the experiment on EKVX NSCLC, > 100 µM; in the experiment with IGROV1 ovarian it was 49.8 µM. Besides, the TGI with HOP-92 NSCLC is 52.7 µM; in the experiment with HS 578T breast, > 100 µM; with COLO 205 colon, 91.5 µM; in the experiment with UO-31 renal, 44.4 µM; in the experiment with HT29 colon, > 100 µM; in the experiment with BT-549 breast, > 100 µM. The TGI with CAKI-1 renal, in the experiment with EKVX NSCLC and with IGROV1 ovarian was > 100 µM throughout.
For the compound `Cc1cc(Cl)nc(N(CCCNc2ccnc3cc(Cl)ccc23)Cc2ccco2)n1`, the GI50 in the experiment with SNB-75 CNS is 2.13 µM; with HOP-92 NSCLC, 0.779 µM; in the experiment on HS 578T breast, 2.13 µM; in the experiment on COLO 205 colon, 1.43 µM; with UO-31 renal, 1.08 µM; in the experiment on HT29 colon it was 1.38 µM. For the same compound, the GI50 in the experiment on BT-549 breast was 2.16 µM; in the experiment with EKVX NSCLC it was 2.18 µM; in the experiment on IGROV1 ovarian, 1.92 µM. Moreover, the TGI was found to be 11.2 µM in the experiment with SNB-75 CNS; 4.19 µM with HOP-92 NSCLC; 8.1 µM in the experiment with HS 578T breast; 3.08 µM with COLO 205 colon; 5.93 µM with UO-31 renal; 6.46 µM in the experiment on HT29 colon. The TGI is 6.47 µM in the experiment with BT-549 breast, 7.73 µM in the experiment on EKVX NSCLC and 8.26 µM with IGROV1 ovarian.
With `O=C(CC(Cl)=C(Cl)Cl)c1cccc(Cl)c1Cl`, the GI50 is 61 µM in the experiment on HOP-92 NSCLC; > 100 µM with HS 578T breast; > 100 µM in the experiment with COLO 205 colon; 59.4 µM in the experiment on UO-31 renal; 75.4 µM in the experiment with HT29 colon; 70.6 µM in the experiment on BT-549 breast. Further, the GI50 with EKVX NSCLC was 57.7 µM; with IGROV1 ovarian it was 46.3 µM. Also, the TGI in the experiment with HOP-92 NSCLC, with HS 578T breast, in the experiment on COLO 205 colon, with UO-31 renal, in the experiment on HT29 colon and in the experiment on BT-549 breast was > 100 µM throughout. Further, the TGI with EKVX NSCLC and in the experiment on IGROV1 ovarian was > 100 µM in each case.
